Measurements published in US20220107328A1, “METHODS OF TREATING LIVER DISEASES” (Camp4 Therapeutics Corporation, priority 2018, published 2022).

Tested on: PNPLA3 mRNA
Experiment: qRT-PCR of PNPLA3 mRNA in compound-treated primary human hepatocytes
Details: for Relative PINPLA3 mRNA: hepatocytes; for Relative PNPLA3 mRNA levels: human hepatocytes; for PNPLA3 expression (in words): validation in human hepatocytes from a second donor
[1] = JAK inhibitors, 10 μM, qRT-PCR, mean of three replicates ± standard deviation
[2] = Syk pathway inhibitors, 10 μM, normalized to B2M, mean of three replicates ± standard deviation

SMILES: NCCC(O)(P(=O)(O)O)P(=O)(O)O [Pamidronate]
- Relative PINPLA3 mRNA (10 uM): 0.2

SMILES: COc1cc2ncnc(Nc3ccc(O)cc3)c2cc1OC [JANEX-1]
- Relative PNPLA3 mRNA levels [1]: 0.78 ± 0.11

SMILES: CCS(=O)(=O)N1CCN(c2ccc(Nc3ncc(C(N)=O)c(NC4CC4)n3)cc2)CC1 [Cerdulatinib]
- Relative PNPLA3 mRNA levels [1]: 0.82 ± 0.00

SMILES: O=C(Nc1nc2cccc(-c3ccc(CN4CCS(=O)(=O)CC4)cc3)n2n1)C1CC1 [Filgotinib]
- Relative PNPLA3 mRNA levels [1]: 1.07 ± 0.14
- Relative PINPLA3 mRNA (1 uM): 0.781
- Relative PINPLA3 mRNA (10 uM): 0.365

SMILES: CC[C@@H]1C(=O)N(C)c2cnc(Nc3ccc(C(=O)NC4CCN(C)CC4)cc3OC)nc2N1C1CCCC1 [BI 2536]
- Relative PINPLA3 mRNA (10 uM): 0.38

SMILES: Cc1cc(Nc2cc(CN3CCOCC3)c3nc(C)c(Cc4ccc(Cl)cc4F)n3n2)n[nH]1 [Gandotinib]
- Relative PNPLA3 mRNA levels [1]: 0.76 ± 0.13

SMILES: CC1(C)CN(C(=O)c2ccc(-c3cccc4nc(NC(=O)C5CC5)nn34)cc2)C1 [Solcitinib]
- Relative PNPLA3 mRNA levels [1]: 1.10 ± 0.01

SMILES: Cl.NNc1nncc2ccccc12 [Hydralazine HCI]
- Relative PINPLA3 mRNA (10 uM): 0.25

SMILES: c1cn2cc(-c3ccc4cn[nH]c4c3)nc(Nc3ccc(N4CCOCC4)cc3)c2n1 [entospletinib]
- Relative PNPLA3 mRNA levels [2]: 0.67 ± 0.05

SMILES: O=C(NCCCNc1nc(Nc2cccc(NC(=O)N3CCCC3)c2)ncc1I)c1cccs1 [BX795]
- Relative PNPLA3 mRNA levels (TBK1 inhibitor, concentration not given): 0.51±0.06

SMILES: Cc1cccc(-c2[nH]c(CNc3ccccc3F)nc2-c2ccc3ncnn3c2)n1 [TEW-7197]
- Relative PNPLA3 mRNA expression (primary human hepatocytes, 0.04 uM, Table 34): 1.219 ± 0.186
- Relative PNPLA3 mRNA expression (primary human hepatocytes, 0.12 uM, Table 34): 0.822 ± 0.152
- Relative PNPLA3 mRNA expression (primary human hepatocytes, 0.37 uM, Table 34): 0.613 ± 0.035
- Relative PNPLA3 mRNA expression (primary human hepatocytes, 3.3 uM, Table 34): 0.560 ± 0.134

SMILES: COC(=O)C1=C(C#N)NC(C)=C(C(=O)OC(C)C)C1c1cccc([N+](=O)[O-])c1 (stereo not drawn) [nilvadipine]
- Relative PNPLA3 mRNA levels [2]: 0.61 ± 0.08

SMILES: C=CC(=O)N1C[C@H](COc2nc(Nc3cnn(C)c3)nc3[nH]cc(Cl)c23)[C@@H](OC)C1 [PF-06459988]
- Relative PINPLA3 mRNA (1 uM): 0.965
- Relative PINPLA3 mRNA (10 uM): 0.398

SMILES: Cc1cnc(Nc2ccc(OCCN3CCCC3)cc2)nc1Nc1cccc(S(=O)(=O)NC(C)(C)C)c1 [Fedratinib (SAR302503, TG101348)]
- Relative PINPLA3 mRNA (10 uM): 0.25

SMILES: Nc1cc(C(F)(F)F)c(-c2cc(N3CCOCC3)nc(N3CCOCC3)n2)cn1 [Buparlisib (BKM120, NVP-BKM120)]
- Relative PINPLA3 mRNA (0.1 uM): 1.049
- Relative PINPLA3 mRNA (0.3 uM): 0.729
- Relative PINPLA3 mRNA (1 uM): 0.659
- Relative PINPLA3 mRNA (3 uM): 0.515

SMILES: C/C=C1\NC(=O)[C@H]2CSSCC/C=C/[C@H](CC(=O)N[C@H](C(C)C)C(=O)N2)OC(=O)[C@H](C(C)C)NC1=O [Romidepsin (FK228, Depsipeptide)]
- Relative PINPLA3 mRNA (10 uM): 0.3

SMILES: Cc1cc(Nc2nc(N[C@@H](C)c3ncc(F)cn3)ncc2Cl)[nH]n1 [AZD1480]
- Relative PNPLA3 mRNA levels [1]: 0.69 ± 0.10
- PNPLA3 expression (in words) (qRT-PCR): efficient downregulation of PNPLA3

SMILES: CNS(=O)(=O)C[C@H]1CC[C@H](N(C)c2ncnc3[nH]ccc23)CC1 [Oclacitinib]
- Relative PNPLA3 mRNA levels [1]: 0.56 ± 0.03
- PNPLA3 expression (in words) (qRT-PCR): efficient downregulation of PNPLA3

SMILES: N#CC[C@H](C1CCCC1)n1cc(-c2ncnc3[nH]ccc23)cn1 [Ruxolitinib]
- Relative PNPLA3 mRNA levels [1]: 0.89 ± 0.17

SMILES: COc1cc(-c2cc(-c3cccc(O)c3)cnc2N)cc(OC)c1OC [K02288]
- PNPLA3 mRNA, TGFβ and BMP pathway inhibitors (in words) (primary human hepatocytes): did not decrease PNPLA3 mRNA in primary human hepatocytes
- Relative PNPLA3 mRNA expression (primary human hepatocytes, 3.3 uM, Table 35): 1.259 ± 0.3268
- Relative PNPLA3 mRNA expression (primary human hepatocytes, 10 uM, Table 35): 2.687 ± 0.4146

SMILES: CC[C@@H]1CN(C(=O)NCC(F)(F)F)C[C@@H]1c1cnc2cnc3[nH]ccc3n12 [Upadacitinib]
- Relative PNPLA3 mRNA levels [1]: 0.93 ± 0.15

SMILES: CN1C/C=C/CCOc2cccc(c2)-c2ccnc(n2)Nc2cccc(c2)C1 [SB1317]
- Relative PINPLA3 mRNA (1 uM): 0.400
- Relative PINPLA3 mRNA (10 uM): 0.413
